Assays:
[1] = test system: G-quadruplex of oligonucleotide GGGTTAGGGTTAGGGTTAGGG (3.5 repeats of the human telomereic motif); test: G-quadruplex stabilizing activity, fluorescence Tm (FAM+DABCYL oligonucleotide); format: binding
From the text: The G-quadruplex stabilizing activity may be determined by a method using the formation of a complex with fluorescein of which the experimental protocol is described below.
All the nucleotides, modified or otherwise, were synthesized by Eurogentec SA, Seraing, Belgium. The oligonucleotide FAM+DABCYL carries the catalogue reference OL-0371-0802. It has the sequence: […] corresponding to 3.5 repeats of the human telomereic motif (strand rich in G). The fluorescein is attached to the 5′ end, the DABCYL to the 3′ end, by the chemical arms described by Eurogentec. The concentration of the samples is checked by spectrophotometry, recording the absorbance spectrum between 220 and 700 nm and using the molar extinction coefficient provided by the supplier.
All the experiments were carried out in a 10 mM sodium cacodylate buffer pH 7.6 containing 0.1 M lithium chloride (or sodium chloride). The absence of fluorescent contamination in the buffer was checked beforehand. The fluorescent oligonucleotide is added at the final concentration of 0.2 μM.
All the measurements of fluorescence were carried out on a Spex Fluorolog DM1B apparatus, using an excitation line width of 1.8 nm and an emission line width of 4.5 nm. The samples are placed in a microquartz cuvette of 0.2×1 cm. The temperature of the sample is controlled by an external water bath. The oligonucleotide alone was analysed at 20, 30, 40, 50, 60, 70 and 80° C. The emission spectra are recorded using an excitation wavelength of 470 nm. The excitation spectra are recorded using either 515 nm or 588 nm as emission wavelength. The spectra are corrected for the response of the instrument by reference curves. A high extinction (80-90%) of the fluorescence of fluorescein at room temperature is observed, in agreement with an intramolecular folding of the oligonucleotide at 20° C. in the form of a G-quadruplex, which induces juxtaposition of its 5′ and 3′ ends which are respectively linked to fluorescein and to DABCYL. This juxtaposition causes an already-described phenomenon of extinction of fluorescence which is used for “molecular beacons”.
An oligonucleotide stock solution at the strand concentration of 0.2 μM in 0.1 M LiCl, 10 mM cacodylate buffer, pH 7.6, is prepared beforehand, heated briefly at 90° C. and slowly cooled to 20° C., and then distributed in aliquots of 600 μl in the fluorescence cuvettes. 3 μl of water (for the control) or 3 μl of test product (stock at 200 μM, final concentration 1 μM) are then added and mixed. The samples are then allowed to incubate for at least 1 hour at 20° C. before each measurement. The use of longer incubation times (up to 24 hours) has no influence on the result obtained.
Each experiment allows the measurement of only one sample. The latter is first incubated at an initial temperature of 20° C., heated to 80° C. over 38 minutes, left for 5 minutes at 80° C. and then cooled to 20° C. over 62 minutes. During this time, the fluorescence is measured simultaneously at two emission wavelengths (515 nm and 588 nm) using 470 nm as excitation wavelength. A measurement is carried out every 30 seconds. The temperature of the water bath is recorded in parallel, and the fluorescence profile as a function of the temperature is reconstituted from these values. The fluorescence profiles are then normalized between 20° C. and 80° C., and the temperature for which the intensity of emission at 515 nm is the mean of those at high and low temperature is called Tm. Under these conditions, the Tm of the reference sample without addition of product is 44° C. in a lithium chloride buffer. This temperature is increased to more than 55° C. in a sodium chloride buffer. The addition of a G-quadruplex-stabilizing compound induces an increase in the Tm. This increase is judged to be significant if it is greater than 3°.

[2] = test system: human telomerease (HL60 cell extract); test: Antitelomerease activity: extension of oligonucleotide TS followed by PCR amplification, with HL60 extract; format: biochemical; conditions: read-out: TRAP IC50
Experimental: The antitelomerease biological activity is determined by the following experimental protocol:
The leukaemia line HL60 is obtained from ATCC (American Type Culture Collection, Rockville, USA). The cells are cultured in suspension in RPMI 1640 medium containing L-glutamine at 2 mM, penicillin 200 U/ml, streptomycin 200 μg/ml, gentamycin 50 μg/ml and supplemented with 10% heat-inactivated foetal calf serum.
An aliquot of 10^5 cells is centrifuged at 3000×G and the supernatant discarded. The cell pellet is resuspended by several successive pipettings in 200 μl of lysis buffer containing 0.5% CHAPS, 10 mM Tris-HCl, pH 7.5, 1 mM MgCl2, 1 mM EGTA, 5 mM β-mercaptoethanol, 0.1 mM PMSF and 10% glycerol and is stored in ice for 30 minutes. The lysate is centrifuged at 160,000×G for 20 minutes at 4° C. and 160 μl of supernatant are recovered. The proteins in the extract are assayed by the Bradford method. The extract is stored at −80° C.
The inhibition of the telomerease activity is determined by a protocol for extension of the oligonucleotide TS (^5′AATCGTTCGAGCAGAGTT^3′), in the presence of a cellular extract enriched in telomerease activity and compounds which are added at various concentrations (10, 1, 0.1 and 0.01 μM). The extension reaction is followed by a PCR amplification of the extension products with the aid of the oligonucleotides TS and CXext (^5′[…]^3′).
The reaction medium is prepared based on the following composition:
The oligonucleotides are obtained from Eurogentec (Belgium) and are stored at −20° C. at a stock concentration of 1 mg/ml in distilled water.
The reaction samples are assembled in 0.2 ml PCR tubes and one drop of paraffin oil is deposited on each of the reactions of the experiment before closing the tubes.
The reaction samples are then incubated in a Cetus 4800-type PCR apparatus under the following temperature conditions: • 15 minutes at 30° C., • 1 minute at 90° C., • followed by 30 cycles of, • 30 seconds at 94° C., • 30 seconds at 50° C., • and 1 minute 30 seconds at 72° C., • followed by a final cycle of 2 minutes at 72° C.
For each of the samples, an aliquot of 10 μl is pipetted under the oil layer and mixed with 5 μl of a loading buffer containing:
The samples are then analysed by electrophoresis on 12% acrylamide gel in a 1×TBE buffer for 1 hour at a voltage of 200 volts, with the aid of a Novex electrophoresis system.
The acrylamide gels are then dried on a sheet of Whatmann 3 mm paper at 80° C. for 1 hour.
The analysis and the quantification of the reaction products are carried out with the aid of an InstantImager apparatus (Pacard).
For each compound concentration tested, the results are expressed as percentage inhibition of the reaction and calculated from the untreated enzymatic control and from the enzyme-free sample (blank) according to the following formula: (compound value−blank value/enzymatic control value−blank value)×100.
The concentration of compound inducing a 50% inhibition of the telomerease reaction (IC50) is determined with the aid of a semilogarithmic graphical representation of the inhibition values obtained as a function of each of the compound concentrations tested.
A compound is considered to be active as an antitelomerease agent when the quantity inhibiting 50% of the telomerease reaction is in particular less than 5 μM.

Row | Structure (SMILES) | G4 delta Tm [1] | IC50 [2]
1 | Cc1cc(N)c2cc(Nc3nc(NCc4ccc(Cl)cc4)nc(Nc4ccc5nc(C)cc(N)c5c4)n3)ccc2n1 [Example 67] | 6.5 °C | 430 nM
2 | Cc1cc(N)c2cc(Nc3nc(Nc4ccc5nc(C)cc(N)c5c4)nc(N4CCN(CCOCCO)CC4)n3)ccc2n1 [Example 69] | 18 °C | 160 nM
3 | Cc1cc(N)c2cc(Nc3nc(Nc4ccc5nc(C)cc(N)c5c4)nc(N4CCCCC4CN4CCCCC4)n3)ccc2n1 (centres unmarked) [Example 70] | 9.5 °C | 560 nM
4 | Cc1cc(N)c2cc(Nc3nc(Nc4ccc5nc(C)cc(N)c5c4)nc(N4CCN(C(=O)C5CCCO5)CC4)n3)ccc2n1 (centres unmarked) [Example 72] | 9.5 °C | 210 nM
5 | COCCN1CCN(c2nc(Nc3ccc4nc(C)cc(N)c4c3)nc(Nc3ccc4nc(C)cc(N)c4c3)n2)CC1 [Example 73] | 9.5 °C | 370 nM
6 | Cc1cc(N)c2cc(Nc3nc(NCCN4CCN(Cc5ccccc5)CC4)nc(Nc4ccc5nc(C)cc(N)c5c4)n3)ccc2n1 [Example 74] | 9.5 °C | 140 nM
7 | Cc1cc(N)c2cc(Nc3nc(Nc4ccc5nc(C)cc(N)c5c4)nc(N4CCN(CCN5CCCC5)CC4)n3)ccc2n1 [Example 75] | 13.5 °C | 50 nM
8 | Cc1cc(N)c2cc(Nc3nc(Nc4ccc5nc(C)cc(N)c5c4)nc(N4CCCN(CCCN5CCCC5)CC4)n3)ccc2n1 [Example 76] | 19 °C | 110 nM
9 | Cc1cc(N)c2cc(Nc3nc(Nc4ccc5nc(C)cc(N)c5c4)nc(N4CCN(CCN(C)C)CC4)n3)ccc2n1 [Example 88] | 6 °C | 110 nM
10 | Cc1cc(N)c2cc(Nc3nc(NCCN4CCCCC4)nc(Nc4ccc5nc(C)cc(N)c5c4)n3)ccc2n1 [Example 90] | 11 °C | 370 nM
11 | Cc1cc(N)c2cc(Nc3nc(NCCNC(C)C)nc(Nc4ccc5nc(C)cc(N)c5c4)n3)ccc2n1 [Example 91] | 7 °C | 370 nM
12 | Cc1cc(N)c2cc(Nc3nc(Nc4ccc5nc(C)cc(N)c5c4)nc(Nc4cccc5ccc(C)nc45)n3)ccc2n1 [Example 98] | 4 °C | 350 nM
13 | CCN(CC)CCOc1nc(Nc2ccc3nc(C)cc(N)c3c2)nc(Nc2ccc3nc(C)cc(N)c3c2)n1 [Example 106] | 14.5 °C | 280 nM
14 | Cc1cc(N)c2cc(Nc3nc(Nc4ccc5nc(C)cc(N)c5c4)nc(Oc4cccc5ccccc45)n3)ccc2n1 [Example 107] | 4.5 °C | 370 nM
15 | Cc1cc(N)c2cc(Nc3nc(Nc4ccc5nc(C)cc(N)c5c4)nc(Oc4ccc5ccccc5c4)n3)ccc2n1 [Example 108] | 3 °C | 370 nM
16 | Cc1cc(C)nc(Oc2nc(Nc3ccc4nc(C)cc(N)c4c3)nc(Nc3ccc4nc(C)cc(N)c4c3)n2)n1 [Example 109] | 4.5 °C | 340 nM
17 | Cc1cc(N)c2cc(Nc3nc(Nc4ccc5nc(C)cc(N)c5c4)nc(Oc4ccccn4)n3)ccc2n1 [Example 110] | 20.5 °C | 610 nM
18 | Cc1cc(N)c2cc(Nc3nc(Nc4ccc5nc(C)cc(N)c5c4)nc(Oc4ncccn4)n3)ccc2n1 [Example 111] | 23.5 °C | 480 nM
19 | COCCOc1nc(Nc2ccc3nc(C)cc(N)c3c2)nc(Nc2ccc3nc(C)cc(N)c3c2)n1 [Example 112] | 15 °C | 320 nM
20 | COc1ccc(COc2nc(Nc3ccc4nc(C)cc(N)c4c3)nc(Nc3ccc4nc(C)cc(N)c4c3)n2)cc1 [Example 113] | 6 °C | 530 nM
21 | Cc1cc(N)c2cc(Nc3nc(Nc4ccc5nc(C)cc(N)c5c4)nc(OCc4ccccn4)n3)ccc2n1 [Example 114] | 13.5 °C | 1260 nM
22 | COc1cccc(Sc2nc(Nc3ccc4nc(C)cc(N)c4c3)nc(Nc3ccc4nc(C)cc(N)c4c3)n2)c1 [Example 122] | 13.5 °C | 370 nM

Source: US6887873B2, “Triazine derivatives and their application as antitelomerase agents” (Aventis Pharma S.A., priority 2001, dated 2005)
